In US9085605B2, “Chemical synthesis and anti-tumor and anti-metastatic effects of dual functional conjugate” (Shenzhen Salubris Pharmaceuticals Co., Ltd., priority 2010, dated 2015):
Read-outs that look alike come from different tables or passages of the source.

Experiments:
[1] = test system: 60 human tumor cell lines; assay: NCI screening of antitumor activity in vitro in 60 human tumor cell lines; format: cell-based
From the text: The experimental results refer to FIGS. 1-12.

[2] = test system: 10 human tumor cell lines; assay: Antitumor activity screening in 10 human tumor cell lines; format: cell-based
From the text: In the invention, the compounds, MTC-301, MTC-302, MTC-303, MTC-304, MTC-305, MTC-306, MTC-307, MDC-308, MDC-403, MDC-404, MDC-405. MDC-406, MDC-407 and MDC-408 were screened their antitumor activity in 10 human tumor cell lines. […] The experimental results refer to FIGS. 13-16.

[3] = test system: Mice breast cancer cell line (4T1, ATCC CRL2539); conditions: TAXOL 3 mg/kg i.p. once daily
Experimental: Mice breast cancer cell line (4T1, ATCC CRL2539) was a generous gift from Prof. Wei Liang of the Institute of biophysics, Chinese Academy of Sciences. The cell was cultured in the 1640 medium (Gibco) containing 10% fetal bovine serum (FBS), 1% glutamine and 1% penicillin.
4T1 cells in logarithmic phase were collected and the concentration was adjusted to 2×10^6/mL. 4T1 tumors were introduced in female BALB/c mice by injecting subcutaneously into the fourth fat pad area of the right abdominal mammary gland with the dose of 2×10^5/0.1 mL. […] From the 9th day after implantation, tumor growth was measured every 2 days with vernier calipers for determining the long diameter and short diameter of tumor. Tumor volume was calculated by the formula (½)×long diameter×short diameter^2. Drug was withdrawn on the twenty-eight days after the implantation, all mice were then sacrificed and the body weight were measured. The tumors, spleen and lung were removed and weighed. The lungs were fixed in Bouin's fixative for 24 h. The numbers of lung metastasis nodule were counted, the statistics was evaluated using Mann-Whitney U test.

lewis lung cancer [4] = conditions: TAXOL 6 mg/kg i.p. once daily
Experimental: C57Bl/6 mice with lewis lung cancer were sacrificed and the tumor was removed. The tumor cell suspension (5×10^6 cell/mL) was prepared in a sterile condition. The suspension (0.2 mL/mice, 1×10^6 tumor cell) was inoculated subcutaneously into the axillary of 24 C57Bl/6 mice. […] From the 7th day after the implantation, the long diameter and short diameter of tumor was measured every 2 days. Tumor volume was calculated by the formula (½)×long diameter×short diameter^2. Drug was withdrawn on the eighteenth day after the implantation. All mice were then sacrificed and the body weight was measured. The tumors, spleen and lung were removed and weighed. The lungs were fixed in Bouin's fixative for 24 h. The numbers of lung metastasis nodule were counted, and the statistics was evaluated by Mann-Whitney U test.

lewis lung cancer [5] = assay: Anti-artificial metastasis on Lewis lung cancer in mice (intravenous inoculation); format: in vivo, C57Bl/6 mice; conditions: TAXOL 3 mg/kg i.p.
Experimental: The suspension (0.2 mL/mice, 3×10^5 tumor cell) was inoculated intravenously into the tails of fifty C57Bl/6 mice. […] The tumors, spleen and lung were removed and weighed.

[6] = test system: human breast cancer line MDA-MB-231; assay: Tumor growth inhibition in nude mice xenograft model, MDA-MB-231; conditions: Paclitaxel 24 mg/kg × 4, intermittent i.p.
Experimental: • 1. […] Drug administration dose were set as: 10 mg/kg, 15 mg/kg, and 20 mk/kg, drug administration volume was 0.2 mL/20 g. • 2. […] MDA [Peptide (P) 0.54 mg/mL (0.001M), Example 10], a colorless and clear liquid, was prepared by the commission, can be directly used after the repackaging in a sterile condition, stored at 4° C. […] Certificate NO. […] SYSK (BeiJing) 2004-0001. Experiment Methods:
The mice were divided into groups and administrated drug after 11 days.
The mice were divided into eight groups, each group had 6-8 mice. The groups contained Negative control. […] After grouping, all mice were administrated with drug by intraperitoneal injection once a day depends on their body weight.
Other groups were administered with drugs for 24 times successively. The experiment was completed 24 h after the last administration.
The mice were sacrificed, and tumors were isolated and their weight was measured, and the inhibition rate of tumor growth by drugs were calculated. […] Calculation methods and formula were omitted.

Human lung cancer H460 = conditions: for TGI: 24 mg/kg
From the text: Through cell culture in vitro, the tumor was inoculated on nude mice, the tumor grew and passaged for the experiment use. • Animals: BALB/c nude mice, ♀, 4˜5 weeks old, were obtained from the Experimental Lab, Chinese Academy of Medical Science, Certificate NO. […] Experiment Method:
The tumor-bearing mice with good tumor growth and good general physical condition were selected and sacrificed. Tumor was isolated in a sterile condition and cut into fragments (diameter for about 2-3 mm) by surgical knife. The fragments were then hypodermically inoculated in posterior axillary of nude mice by means of a trocar.
After the tumors grew naturally for eight days, the average volume of tumors reaches 130 mm^3. The length and width of tumor was measured using vernier calipers, and divided into groups by the tumor volume.
The mice were divided into five groups for observation, each groups had eight mice. […] Respective drug was administrated for each group from the grouping day.
The experiment was terminated 24 hours after the last administration.
During the experimentation, the tumors sizes (length and width) and body weights of mice were measured once every three days. The tumor volume (TV) and relative tumor volume (RTV) were calculated according to the method for references, and the tumor volume growth tendency chart was plotted.
At the end of the experiment, the mice were sacrificed. Tumors were removed and weighed, and the inhibition rate of the tumor growth by drugs was calculated. Statistical significance of the tumor weight, tumor volume and RTV level were evaluated by t-test.
[formula] • (C, average tumor weight of control group; T, average tumor weight of administrated group) • Tumor Volume (TV)=length×width^2/2. • Relative Tumor Volume (RTV) formula: Vt/Vo • (Vo is the volume of TV at the beginning of the grouping, and Vt is the volume of TV at measure time) • Anti-tumor activities were evaluated by Tumor Relative proliferation Rate T/C (%)
[formula] • Therapeutic effect evaluation standard: T/C (%)>40, was judged as invalid; • T/C (%)≦40, and through statistical evaluation P<0.05, was judged as valid.

[7] = Paclitaxel injection 24 mg/kg × 4, once every three days

CC(=O)O[C@H]1C(=O)[C@@]2(C)[C@H]([C@H](OC(=O)c3ccccc3)[C@]3(O)C[C@H](OC(=O)[C@H](OC(=O)CCC(=O)NCCCCC(NC(=O)CC[C@H](NC(=O)C(C)NC(=O)/C=C/c4cccs4)C(N)=O)C(N)=O)[C@@H](NC(=O)c4ccccc4)c4ccccc4)C(C)=C1C3(C)C)[C@]1(OC(C)=O)CO[C@@H]1C[C@@H]2O (some centres unmarked) [MTC-219]
50% growth inhibition (GI50) activity [1]: in the same magnitude range as paclitaxel

CC(=O)O[C@H]1C(=O)[C@@]2(C)[C@H]([C@H](OC(=O)c3ccccc3)[C@]3(O)C[C@H](OC(=O)[C@H](OC(=O)CCC(=O)NCCCCC(NC(=O)CC[C@H](NC(=O)C(C)NC(=O)COc4cccc5ccccc45)C(N)=O)C(N)=O)[C@@H](NC(=O)c4ccccc4)c4ccccc4)C(C)=C1C3(C)C)[C@]1(OC(C)=O)CO[C@@H]1C[C@@H]2O (some centres unmarked) [MTC-233]
50% growth inhibition (GI50) activity [1]: in the same magnitude range as paclitaxel

CC(=O)O[C@H]1C(=O)[C@@]2(C)[C@H]([C@H](OC(=O)c3ccccc3)[C@]3(O)C[C@H](OC(=O)[C@H](OC(=O)CCC(=O)NCCCCC(NC(=O)CC[C@H](NC(=O)C(C)NC(=O)/C=C/c4ccc(C)cc4)C(N)=O)C(N)=O)[C@@H](NC(=O)c4ccccc4)c4ccccc4)C(C)=C1C3(C)C)[C@]1(OC(C)=O)CO[C@@H]1C[C@@H]2O (some centres unmarked) [MTC-302]
50% growth inhibition (GI50) activity [1]: in the same magnitude range as paclitaxel
50% growth inhibition (GI50) activity [2]: in the same magnitude range as paclitaxel or docetaxel

CC(=O)O[C@H]1C(=O)[C@@]2(C)[C@H]([C@H](OC(=O)c3ccccc3)[C@]3(O)C[C@H](OC(=O)[C@H](O)[C@@H](NC(=O)c4ccccc4)c4ccccc4)C(C)=C1C3(C)C)[C@]1(OC(C)=O)CO[C@@H]1C[C@@H]2O [Paclitaxel, reference compound]
Lung weight [3]: 190 ± 49 mg
Lung metastasis nodule counts ([3]; listed as TAXOL): 41.2 ± 9
Lung metastasis nodule counts ([3]; listed as Taxol): no significant improvement
Lung metastasis nodule counts (lewis lung cancer [4]; listed as TAXOL): 24.9 ± 9
Lung metastasis nodule counts (lewis lung cancer [4]; listed as Taxol): no significant improvement
Lung weight (lewis lung cancer [5]): 497 ± 491 mg
Lung metastasis nodule counts (lewis lung cancer [5]; listed as TAXOL): 38.5 ± 28
Lung metastasis nodule counts (lewis lung cancer [5]; listed as Taxol): no significant improvement
RTV [6]: 3.18 ± 2.735
T/C [6]: 17.64%
TGI [6]: 84.9%
Tumor volume Beginning [6]: 133 ± 39.8 mm^3
Tumor volume End [6]: 422 ± 404.6 mm^3
Tumor weight [6]: 0.43 ± 0.416 g
Body weight Beginning (Human lung cancer H460; [7]): 18.9 ± 1.28 g
Body weight End (Human lung cancer H460; [7]): 18.6 ± 1.41 g
RTV (Human lung cancer H460; [7]): 11.9 ± 3.16
T/C (Human lung cancer H460; [7]): 35.6%
Tumor volume Beginning (Human lung cancer H460; [7]): 130 ± 36.7 mm^3
Tumor volume End (Human lung cancer H460; [7]): 1583 ± 507.2 mm^3
Tumor weight (Human lung cancer H460; [7]): 1.16 ± 0.410 g
TGI (Human lung cancer H460; Paclitaxel injection 24 mg/kg × 4, once every three days, listed as Paclitaxel injection): 61.0%
TGI (Human lung cancer H460; Paclitaxel injection 24 mg/kg × 4, once every three days, listed as paclitaxel): 61%
Body weight lost compared with the average weight at the beginning of grouping (Human lung cancer H460; paclitaxel 24 mg/kg intermittently): 2
Tumor growth inhibition rate compared with negative control (Human lung cancer H460; paclitaxel 24 mg/kg, after the fourth administration): 65%
